Experiments:
[1] = test system: HepaRG cells; assay: PA and PANO content in cell culture medium of HepaRG cells upon pharmacological transporter inhibition (LC-MS/MS); type: in vitro ADME, human; details: HepaRG, 2.5 µM PA, 4, 8, 24 h; CsA 10 µM, Ko143 5 µM, MK-571 50 µM, Qu 100 µM, TEA 3 mM
Procedure: (§1) In the case of TEA, cells were pre-incubated 24 h prior to PA treatment. The inhibitors were applied anew at PA incubation.
In order to measure time-dependent depletion of PA and PANO content in cell culture medium, cells were seeded at a density of 0.2 × 10^6 cells per well in a 6-well plate and cultivated as described in Section 4.2. After four weeks of cultivation, cells were adapted to serum-free medium and medium substituted with insulin, transferrin, selenium (ITS) serum extender (Capricorn Scientific, Ebsdorfergrund, Germany) 48 h prior to PA incubation for optimal LC-MS/MS measurements. […] Samples were taken after 2 h, 4 h, 8 h and 24 h.
Briefly, chromatographic separation of PA/PANO analytes was achieved on a 50 × 2.1 mm Kinetex ™ 2.6 μm CoreShell EVO C18 100 Å column protected by a SecurityGuard ™ ULTRA EVO C 18 2.1 mm guard column (both Phenomenex, Aschaffenburg, Germany) at a flow rate of 0.4 mL/min on a Shimadzu high performance liquid chromatography (HPLC) apparatus (LC-20AB, SIL-20AC HT, CTO-20AC, CBM-20A, Duisburg, Germany) coupled to an API4000 triple quadrupole MS (Sciex, Darmstadt, Germany). The following MS parameters were used for measurements in positive electrospray ionisation (ESI+) mode: ionisation voltage 2500 V, nebuliser gas 50 psi, heating gas 50 psi, curtain gas 30 psi, temperature 600 °C, collision gas level 7. The substance specific parameters are summarized in Kaltner et al. 2019 [79].

[2] = Cell viability (MTT assay) of HepaRG cells with and without transporter inhibitors; type: cell-based, human; details: human, HepaRG cells, HepaRG, no PA, inhibitor alone 24 h: CsA 10 µM, Ko143 5 µM, MK571 50 µM, Qu 100 µM, TEA 3 mM; read-out: Cell viability (MTT), percent of solvent control, Mean [%]
Procedure: as §1
(§2) To analyze the cytotoxic effects of PAs on HepaRG cells with non-inhibited and inhibited hepatic transporters, the cells were seeded at a density of 9000 cells per well in the inner 60 wells of a 96-well plate and cultivated as described in Section 4.2. After four weeks of cultivation, FBS concentration in the cell culture medium was reduced to 2% for 48 h prior incubation. Thereby, inhibitory effects of peptide growth factors from the FBS on xenobiotic-metabolizing enzymes were minimized. […] The cells were pre-incubated with pharmacological inhibitors as described in Section 4.3. […] Cell viability was analyzed via the MTT test. 10 µl MTT reagent (5 mg/mL MTT dissolved in phosphate-buffered saline, PBS) was added per well and incubated for 1 h at 37 °C. The supernatant was discarded, and the violet formazan crystals dissolved in 130 µL desorption solution (0.7% sodium dodecyl sulfate in propan-2-ol). After shaking for 20 min (under protection from light), absorbance was measured on a TecanM200Pro spectrometer (Tecan Group Ltd., Männedorf, Switzerland) at a wavelength of 570 nm, along with a reference wavelength of 630 nm.

[3] = target: T1, SLC22A1 (Homo sapiens, UniProt O15245); assay: ASP+ (SLC22A1 substrate) uptake measurement in HepaRG cells; type: cell-based; details: for fluorescence [%], MW [%]: solv ctrl = 100; for reduction of ASP+ (SLC22A1 substrate) uptake: HepaRG, 24 h, Qu 100 µM, TEA 3 mM, 1 µM ASP+
T1 construct: For measuring the uptake of ASP^+ in HepaRG cells incubated with PAs; endogenous in cells; host or cells: differentiated HepaRG cells (human hepatoma)
T1 sequence (O15245 1-554): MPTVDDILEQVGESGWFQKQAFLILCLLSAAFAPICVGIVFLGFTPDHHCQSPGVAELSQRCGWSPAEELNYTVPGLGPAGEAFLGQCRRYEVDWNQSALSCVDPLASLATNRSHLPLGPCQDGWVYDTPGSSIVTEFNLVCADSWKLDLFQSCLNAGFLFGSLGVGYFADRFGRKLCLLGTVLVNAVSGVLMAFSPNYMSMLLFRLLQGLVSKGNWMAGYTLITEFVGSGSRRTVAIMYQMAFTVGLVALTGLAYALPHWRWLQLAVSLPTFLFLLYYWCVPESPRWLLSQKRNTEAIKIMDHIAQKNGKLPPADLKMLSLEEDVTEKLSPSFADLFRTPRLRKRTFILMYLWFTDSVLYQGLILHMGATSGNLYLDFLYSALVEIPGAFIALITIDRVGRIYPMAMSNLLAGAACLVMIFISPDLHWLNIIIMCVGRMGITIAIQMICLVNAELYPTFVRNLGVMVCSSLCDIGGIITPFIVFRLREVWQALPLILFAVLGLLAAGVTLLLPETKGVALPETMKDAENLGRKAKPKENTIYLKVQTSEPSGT
Procedure: ASP^+ is an organic cationic mitochondrial dye that only fluoresces inside cells so that fluorescence measured in the cell culture medium can be neglected. […] In parallel, cells were incubated with Qu (100 µM) and TEA (3 mM) as mentioned in Section 4.3. After 24 h, cells were incubated with 1 µM ASP^+ in Hanks’ balanced salt solution (HBSS, Sigma-Aldrich, Taufkirchen, Germany) at 37 °C. Fluorescence was measured after 20 min at ASP^+-specific wavelength (λex = 475 nm and λem = 605 nm) on a TecanM200Pro spectrometer (Tecan Group Ltd., Männedorf, Switzerland) according to Ahlin et al., (2008).

[4] = test system: HepaRG cells; assay: Cell viability (MTT assay) of HepaRG cells with and without transporter inhibitors; type: cell-based, human; details: HepaRG, 0.01% Triton X-100 positive control; listed as pos ctrl
Procedure: as §1, §2

| Molecule | effect of inhibitor on retrorsine and senecionine uptake and PANO formation [1] | viability at 24 h [2] | fluorescence [%], MW [%] ([3]; 3mM) | reduction of ASP+ (SLC22A1 substrate) uptake [3] | Cell viability (MTT), percent of solvent control [4] | fluorescence [%], MW [%] ([3]; 100 µM) |
| --- | --- | --- | --- | --- | --- | --- |
| CC[N+](CC)(CC)CC [TEA, tetraethylammonium bromide] | significantly reduced retrorsine uptake only after 8 and 24 h and senecionine uptake only after 8 h | 84.5% | 36.1156% | up to 64% |  |  |
| CN(C)C(=O)CCSC(SCCC(=O)O)c1cccc(/C=C/c2ccc3ccc(Cl)cc3n2)c1 (centres unmarked) [MK-571, reference compound] | decelerated retrorsine and senecionine uptake and PANO excretion, but to a lesser extent than CsA | 106% |  |  |  |  |
| Triton X-100 [reference compound] |  |  |  |  | 2.774% |  |
| C=C[C@H]1C[N@@]2CC[C@H]1C[C@@H]2[C@@H](O)c1ccnc2ccc(OC)cc12 [Qu, quinidine] | striking effect on both retrorsine and senecionine uptake at all time points | 87.2% |  | 18% |  | 82.7588% |
